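Interpolation was linear, between the two tested concentrations surrounding the appropriate level; five concentrations were tested over 48 hours in 96-well plates. Here, GI50 denotes the concentration required for 50% inhibition of growth.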 Active and inactive are the calls of the source. No stated cut-off is given here; in the data, active = GI50 up to about 1.1 µM and inactive = higher. Where a SMILES comes first, the peptide text is derived from it. [ ]: non-standard residue; d: D form. The star is where a group is joined. NMeF = CN[CH](Cc1ccccc1)C(=O)O; NMeV = CN[CH](C(=O)O)C(C)C; Boc = CC(C)(C)OC(=O)*; OBn = c1ccc(CO*)cc1
Tests used:
Assay in all cases: NCI-60 cell line screen, 48 h
[1] = system: NCI-H226
[2] = system: HOP-62
[3] = system: SF-268
[4] = system: HCT-15
[5] = system: Malme-3M
[6] = system: UACC-257
[7] = system: UACC-62
[8] = system: SNB-19
[9] = system: K562
[10] = system: SK-MEL-5
[11] = system: HCT-116
[12] = system: SN12C
[13] = system: KM12
[14] = system: 786-0
[15] = system: DMS-273
[16] = system: TK-10
[17] = system: LXFL 529
[18] = system: LOX IMVI
[19] = system: SF-539
[20] = system: RPMI-8226
[21] = system: SR
[22] = system: ACHN
[23] = system: MOLT-4
[24] = system: NCI-H522
[25] = system: OVCAR-3
[26] = system: HL-60
[27] = system: A549
[28] = system: COLO 205
[29] = system: U-251
[30] = system: EKVX
[31] = system: IGROV-1
[32] = system: XF498
[33] = system: KM-20L2
[34] = system: NCI-H460
[35] = system: SF-295
[36] = system: UO-31
[37] = system: DMS-114
[38] = system: M14
[39] = system: HT-29
[40] = system: NCI-H23
[41] = system: CCRF-CEM
[42] = system: SW-620
[43] = system: OVCAR-8
[44] = system: M19-MEL
[45] = system: HCC 2998
[46] = system: OVCAR-4
[47] = system: SK-MEL-2
[48] = system: CAKI-1
[49] = system: SNB-78
[50] = system: SK-OV-3
[51] = system: RXF 393
[52] = system: HOP-92
[53] = system: SK-MEL-28
[54] = system: OVCAR-5
[55] = system: A498

## CC(C)C(NC(=O)OC(C)(C)C)C(=O)N(C)C(Cc1ccccc1)C(=O)N(C)C(C(=O)N(C)C(C(=O)OCc1ccccc1)C(C)C)C(C)C (stereo not drawn) (Boc-V[NMeF][NMeV][NMeV]-OBn; configuration not given here)
[1]
  GI50: > 100 µM (inactive)
[2]
  GI50: > 100 µM (inactive)
[3]
  GI50: > 100 µM (inactive)
[4]
  GI50: > 100 µM
[5]
  GI50: 24.8 µM (inactive)
[6]
  GI50: 39.6 µM (inactive)
[7]
  GI50: > 100 µM (inactive)
[8]
  GI50: > 100 µM (inactive)
[9]
  GI50: > 100 µM (inactive)
[10]
  GI50: 12.5 µM (inactive)
[11]
  GI50: 66.5 µM (inactive)
[12]
  GI50: > 100 µM (inactive)
[13]
  GI50: > 100 µM (inactive)
[14]
  GI50: > 100 µM (inactive)
[15]
  GI50: 72.8 µM (inactive)
[16]
  GI50: > 100 µM (inactive)
[17]
  GI50: 7.6 µM (inactive)
[18]
  GI50: > 100 µM (inactive)
[19]
  GI50: > 100 µM (inactive)
[20]
  GI50: 10.3 µM (inactive)
[21]
  GI50: 20.8 µM (inactive)
[22]
  GI50: 26.4 µM (inactive)
[23]
  GI50: 4.81 µM (inactive)
[24]
  GI50: 16.7 µM (inactive)
[25]
  GI50: > 100 µM (inactive)
[26]
  GI50: > 100 µM (inactive)
[27]
  GI50: > 100 µM (inactive)
[28]
  GI50: > 100 µM (inactive)
[29]
  GI50: > 100 µM (inactive)
[30]
  GI50: 89.1 µM (inactive)
[31]
  GI50: > 100 µM (inactive)
[32]
  GI50: 19.4 µM (inactive)
[33]
  GI50: > 100 µM (inactive)
[34]
  GI50: > 100 µM (inactive)
[35]
  GI50: 51.2 µM (inactive)
[36]
  GI50: > 100 µM (inactive)
[37]
  GI50: 62.5 µM (inactive)
[38]
  GI50: 62.8 µM (inactive)
[39]
  GI50: 20.2 µM (inactive)
[40]
  GI50: > 100 µM (inactive)
[41]
  GI50: 48.5 µM (inactive)
[42]
  GI50: > 100 µM (inactive)
[43]
  GI50: > 100 µM (inactive)
[44]
  GI50: > 100 µM (inactive)
[45]
  GI50: 44.2 µM (inactive)

## COc1ccc(C(=O)O)c2c(=O)c3ccccc3[nH]c12
[1]
  GI50: > 100 µM (inactive)
[46]
  GI50: > 100 µM (inactive)
[2]
  GI50: > 31.6 µM (inactive)
[3]
  GI50: > 100 µM (inactive)
[4]
  GI50: > 100 µM
[5]
  GI50: > 100 µM (inactive)
[47]
  GI50: > 100 µM (inactive)
[6]
  GI50: > 100 µM (inactive)
[7]
  GI50: > 100 µM (inactive)
[8]
  GI50: > 100 µM (inactive)
[9]
  GI50: > 100 µM (inactive)
[11]
  GI50: > 100 µM (inactive)
[12]
  GI50: > 100 µM (inactive)
[13]
  GI50: > 100 µM (inactive)
[48]
  GI50: > 100 µM (inactive)
[49]
  GI50: > 100 µM (inactive)
[14]
  GI50: > 100 µM (inactive)
[15]
  GI50: > 100 µM (inactive)
[16]
  GI50: > 100 µM (inactive)
[17]
  GI50: > 100 µM (inactive)
[18]
  GI50: > 100 µM (inactive)
[19]
  GI50: > 100 µM (inactive)
[20]
  GI50: > 100 µM (inactive)
[21]
  GI50: > 100 µM (inactive)
[50]
  GI50: > 100 µM (inactive)
[22]
  GI50: > 100 µM (inactive)
[23]
  GI50: > 100 µM (inactive)
[24]
  GI50: > 100 µM (inactive)
[25]
  GI50: > 10 µM (inactive)
[26]
  GI50: > 100 µM (inactive)
[27]
  GI50: > 100 µM (inactive)
[28]
  GI50: > 100 µM (inactive)
[29]
  GI50: > 100 µM (inactive)
[51]
  GI50: > 100 µM (inactive)
[30]
  GI50: > 100 µM (inactive)
[31]
  GI50: > 100 µM (inactive)
[52]
  GI50: > 100 µM (inactive)
[53]
  GI50: > 100 µM (inactive)
[32]
  GI50: > 100 µM (inactive)
[33]
  GI50: > 100 µM (inactive)
[34]
  GI50: > 100 µM (inactive)
[54]
  GI50: > 100 µM (inactive)
[35]
  GI50: > 100 µM (inactive)
[36]
  GI50: > 100 µM (inactive)
[38]
  GI50: > 31.6 µM (inactive)
[55]
  GI50: > 100 µM (inactive)
[39]
  GI50: > 100 µM (inactive)
[40]
  GI50: > 100 µM (inactive)
[41]
  GI50: > 31.6 µM (inactive)
[42]
  GI50: > 100 µM (inactive)
[43]
  GI50: > 100 µM (inactive)
[44]
  GI50: > 100 µM (inactive)
[45]
  GI50: > 100 µM (inactive)
